Data: patent US20030073850A1, “4-Imidazole derivatives of benzyl and restricted benzyl sulfonamides, sulfamides, ureas, carbamates, and amides and their use” (priority 1998, published 2003)

Tests used:
[1] = biological target: T1, α1A (rabbit urethra) (Oryctolagus cuniculus, UniProt O02824); assay: Agonist tissue response, contraction of rabbit urethra; format: biochemical; conditions: values without asterisk, read-out: Agonist Tissue Response (pD2) α1A (rab ureth) (converted)
T1 construct: tested for α1A functional activity using rabbit urethra; from tissue; host or cells: rabbit urethra (female New Zealand white rabbits)
T1 sequence (O02824 1-466): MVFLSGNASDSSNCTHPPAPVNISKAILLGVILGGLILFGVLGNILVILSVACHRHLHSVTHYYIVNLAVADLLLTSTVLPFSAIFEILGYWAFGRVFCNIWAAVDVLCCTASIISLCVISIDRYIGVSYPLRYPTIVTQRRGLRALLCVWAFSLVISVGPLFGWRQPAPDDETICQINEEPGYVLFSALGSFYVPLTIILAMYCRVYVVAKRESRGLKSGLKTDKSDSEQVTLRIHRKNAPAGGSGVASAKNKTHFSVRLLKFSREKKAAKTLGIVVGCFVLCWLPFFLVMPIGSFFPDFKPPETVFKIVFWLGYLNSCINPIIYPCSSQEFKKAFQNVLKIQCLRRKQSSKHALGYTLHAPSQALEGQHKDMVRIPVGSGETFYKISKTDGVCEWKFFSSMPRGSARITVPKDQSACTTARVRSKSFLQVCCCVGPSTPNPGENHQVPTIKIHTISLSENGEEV
Method: Most of the compounds were tested for α1A functional activity using rabbit urethra as follows. Female New Zealand white rabbits (2.0-3.5 Kg) were sedated with CO2 and decapitated. […] Subsequent experimental conditions were as described above for the other tissues. Agonist concentration response curves were cumulative except for the vas deferens assay in which the transient response made such measurements impractical.

[2] = tested on: anesthetized dogs; assay: Mean arterial pressure (MAP) in anesthetized dogs; format: in vivo, dog; conditions: iv dose causing a maximum increase in MAP of 20 mm Hg, anesthetized female Beagle dogs
[3] = biological target: T2, α1b (hamster receptor expressed in mouse fibroblasts) (Mesocricetus auratus, UniProt P18841); assay: Radioligand binding, [3H]-prazosin, α1b; conditions: hamster receptor expressed in mouse fibroblasts, [3H]-prazosin; read-out: Radioligand Binding Ki α1b (Hamster)
T2 construct: expressed in transfected cells; host or cells: mouse fibroblasts
T2 sequence (P18841 1-515): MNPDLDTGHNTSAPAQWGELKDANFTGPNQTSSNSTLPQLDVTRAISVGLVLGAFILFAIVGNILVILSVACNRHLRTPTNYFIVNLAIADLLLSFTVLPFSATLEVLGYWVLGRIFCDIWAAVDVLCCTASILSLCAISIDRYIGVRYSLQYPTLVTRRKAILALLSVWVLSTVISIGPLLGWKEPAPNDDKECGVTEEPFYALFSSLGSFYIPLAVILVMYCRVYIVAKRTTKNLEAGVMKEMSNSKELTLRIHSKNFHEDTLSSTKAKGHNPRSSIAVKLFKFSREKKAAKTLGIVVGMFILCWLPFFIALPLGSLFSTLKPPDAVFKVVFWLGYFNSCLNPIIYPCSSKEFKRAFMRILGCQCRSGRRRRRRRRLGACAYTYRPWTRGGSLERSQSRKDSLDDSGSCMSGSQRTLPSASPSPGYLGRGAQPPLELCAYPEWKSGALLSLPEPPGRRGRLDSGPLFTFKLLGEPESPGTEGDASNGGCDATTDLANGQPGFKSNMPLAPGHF
Summary of the method: (§1)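 [3H]-prazosin radioligand displacement; α1A from rat submaxillary gland tissue, α1b hamster and α1d rat receptors each expressed in mouse fibroblasts.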

[4] = biological target: T3, α1A (rat submaxillary gland) (Rattus norvegicus, UniProt P43140); assay: Radioligand binding, [3H]-prazosin, α1A
T3 construct: α1A (rat submaxillary gland); from tissue; host or cells: rat submaxillary gland
T3 sequence (P43140 1-466): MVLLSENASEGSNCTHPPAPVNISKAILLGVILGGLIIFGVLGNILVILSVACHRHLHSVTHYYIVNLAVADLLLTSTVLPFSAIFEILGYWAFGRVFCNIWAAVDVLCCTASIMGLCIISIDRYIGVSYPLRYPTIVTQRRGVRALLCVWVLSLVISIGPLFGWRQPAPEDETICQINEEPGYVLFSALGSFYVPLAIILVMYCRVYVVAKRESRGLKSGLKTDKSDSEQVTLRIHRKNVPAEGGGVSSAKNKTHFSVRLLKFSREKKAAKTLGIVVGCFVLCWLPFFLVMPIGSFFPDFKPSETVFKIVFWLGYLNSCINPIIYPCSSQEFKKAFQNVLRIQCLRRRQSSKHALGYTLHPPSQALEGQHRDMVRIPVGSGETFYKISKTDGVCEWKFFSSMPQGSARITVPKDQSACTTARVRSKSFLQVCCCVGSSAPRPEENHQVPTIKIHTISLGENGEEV
Summary of the method: as §1

EC50 [1]: 1.38 µM
Mean MAP ED20 [2]: 109.1 nmol/kg
Ki [3]: 10 µM
Ki [4]: 0.183 µM
SMILES: CCS(=O)(=O)Nc1cccc2c1OCCC2c1c[nH]cn1 (single isomer, unassigned; (+)) [Example 95, (+) N-[4-(1H-imidazol-4-yl)-3,4-dihydro-2H-chromen-8-yl]ethanesulfonamide]
